For 14 molecules, TGI results are on record in PubChem BioAssay (NCI).

Some test systems named below: SN12C renal; M14 melanoma; HS 578T breast; HT29 colon; A549 NSCLC; DU-145 prostate; K-562 leukemia; SF-539 CNS; UO-31 renal; NCI-H226 lung.
Common to all, as to experiment: DTP human tumour cell line panel, 48 h

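These data come from cells grown in 96-well plates and exposed to compound for 48 hours at five concentrations. The concentration for full growth arrest is given as TGI.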

One may read the TGI as the concentration at which net growth stops. Regarding `CC(C)(C)OC(=O)N1CCC2(CC1)C(=O)NCN2c1ccccc1`, the TGI in the experiment with SN12C renal, in the experiment on M14 melanoma, in the experiment on HS 578T breast, with HT29 colon, with A549 NSCLC and in the experiment with DU-145 prostate was greater than 100 µM each time. The total growth inhibition concentration (TGI) in the experiment with K-562 leukemia, in the experiment with SF-539 CNS, with UO-31 renal and in the experiment on NCI-H226 lung was greater than 100 µM throughout.

In the case of `CC1=NN(c2cc(Cl)c(S(=O)(=O)O)cc2Cl)C2(C1)C(Cl)C(=O)N2c1nc2ccccc2s1` (centres undefined), the TGI in the experiment on SN12C renal, in the experiment on M14 melanoma, with HS 578T breast, with HT29 colon, with A549 NSCLC and in the experiment on DU-145 prostate was greater than 100 µM each time. For the same molecule, the TGI with K-562 leukemia was greater than 100 µM; with SF-539 CNS it was greater than 100 µM; in the experiment with UO-31 renal, 76.5 µM; with NCI-H226 lung, greater than 100 µM.

Take `O=C(c1ccccc1)C1C(c2ccccc2[N+](=O)[O-])N1C1CCCCC1` (centres undefined): the TGI amounted to 15.6 µM in the experiment on SN12C renal; 23.9 µM in the experiment on M14 melanoma; 49.3 µM in the experiment on HS 578T breast; 16.4 µM with HT29 colon; 44.2 µM with A549 NSCLC; 22.6 µM with DU-145 prostate. Moreover, the TGI in the experiment with K-562 leukemia worked out at 8.06 µM; in the experiment on SF-539 CNS it was 4.77 µM; with UO-31 renal, 20.3 µM; in the experiment on NCI-H226 lung it was 34 µM.

Take `Cc1c(-c2ccccc2)oc(=O)c2ccccc12`: the concentration for total growth inhibition (TGI) was 38.1 µM with SN12C renal; 51.2 µM with M14 melanoma; 43.1 µM in the experiment on HS 578T breast; 34.6 µM in the experiment on HT29 colon; greater than 100 µM in the experiment with A549 NSCLC; greater than 100 µM with DU-145 prostate. The TGI with K-562 leukemia is greater than 100 µM; with SF-539 CNS it was 36.2 µM; in the experiment on UO-31 renal it was 43.7 µM; with NCI-H226 lung it was 40.3 µM.

As to `CC(=O)N1CN2C(=O)CCC2c2cc(C)ccc21` (centres undefined), the TGI with SN12C renal, in the experiment with M14 melanoma, with HS 578T breast, with HT29 colon, in the experiment on A549 NSCLC and with DU-145 prostate was greater than 100 µM each time. Moreover, the TGI in the experiment with K-562 leukemia, in the experiment on SF-539 CNS, in the experiment with UO-31 renal and with NCI-H226 lung was greater than 100 µM throughout.

Regarding `CC(C)(C)c1cc(C(C)(C)C)c2sc(=O)oc2c1O`, the TGI in the experiment on SN12C renal is 27.1 µM; with M14 melanoma it was 31.6 µM; in the experiment on HS 578T breast, 31.4 µM; with HT29 colon, 33.2 µM; in the experiment with A549 NSCLC it was 27.6 µM; in the experiment with DU-145 prostate, 32.8 µM. Besides, the TGI in the experiment on K-562 leukemia is 30.4 µM; in the experiment with SF-539 CNS, 30.9 µM; in the experiment with UO-31 renal it was 23.8 µM; in the experiment with NCI-H226 lung, 36.2 µM.

Turning to `COc1ccc(Nc2nc(N)c(C(=O)c3ccco3)s2)cc1`, the TGI with SN12C renal, in the experiment with M14 melanoma, with HS 578T breast, in the experiment with HT29 colon, in the experiment on A549 NSCLC and in the experiment on DU-145 prostate was greater than 100 µM throughout. The TGI with K-562 leukemia is greater than 100 µM; with SF-539 CNS, 63.2 µM; in the experiment on UO-31 renal it was greater than 70.2 µM; with NCI-H226 lung, greater than 72.2 µM.

Take `O=C(Nc1nnc(-c2ccccc2)o1)C(SC(=S)N1CCCC1)c1ccccc1` (centres undefined): the TGI with SN12C renal, in the experiment on M14 melanoma, in the experiment with HS 578T breast, in the experiment with HT29 colon, with A549 NSCLC and in the experiment with DU-145 prostate was greater than 100 µM each time. Moreover, the TGI was greater than 100 µM in the experiment with K-562 leukemia, 91.8 µM with SF-539 CNS, 57.8 µM in the experiment with UO-31 renal and greater than 100 µM in the experiment with NCI-H226 lung.

As to `Clc1ccc(C2=CC(c3ccccc3)N3C(=N[C@H]4CCCC[C@@H]43)N2)cc1` (some centres undefined), the TGI was 10.5 µM with M14 melanoma; 23.6 µM in the experiment with HS 578T breast; 10.2 µM in the experiment with HT29 colon; 18.4 µM with A549 NSCLC; 20.7 µM in the experiment on DU-145 prostate; greater than 100 µM with K-562 leukemia. For the same molecule, the TGI with SF-539 CNS was determined as 19.6 µM; in the experiment with UO-31 renal, 22.9 µM; with NCI-H226 lung it was 23 µM.

As for `C[N+](C)([O-])C12CC3CC(CC(C3)C1)C2`, the concentration for total growth inhibition (TGI) with SN12C renal, in the experiment with M14 melanoma, in the experiment with HS 578T breast, in the experiment with HT29 colon, with A549 NSCLC and with DU-145 prostate was greater than 100 µM in each case. In addition, the TGI was greater than 100 µM with K-562 leukemia, greater than 100 µM with SF-539 CNS, 80.6 µM with UO-31 renal and greater than 100 µM in the experiment on NCI-H226 lung.

With `O=[N+]([O-])C(/C=C(\Cl)[N+](=O)[O-])=C(Nc1ccccc1)Nc1ccccc1`, the TGI in the experiment with SN12C renal was 29.4 µM; with M14 melanoma, 22.9 µM; in the experiment with HS 578T breast, 27.7 µM; with HT29 colon, 25.7 µM; with A549 NSCLC, 31.8 µM; in the experiment on DU-145 prostate it was 31.7 µM. The TGI is greater than 29.5 µM in the experiment on K-562 leukemia, 24 µM in the experiment with SF-539 CNS, 25.3 µM in the experiment with UO-31 renal and 27.4 µM in the experiment on NCI-H226 lung.

For `CCOC(=O)CCC(C(=O)OCC)n1nnc2cc(Nc3c(C)[n+]([O-])c4cc(Cl)ccc4[n+]3[O-])ccc21` (centres undefined), the TGI with SN12C renal, in the experiment on M14 melanoma, with HS 578T breast, in the experiment on HT29 colon, with A549 NSCLC and with DU-145 prostate was greater than 100 µM throughout. Moreover, the TGI with K-562 leukemia, in the experiment with SF-539 CNS, with UO-31 renal and in the experiment with NCI-H226 lung was greater than 100 µM each time.

Regarding `COc1cc(-c2cc(OC)c(OC)c3ccc(Br)cc23)c2cc(Br)ccc2c1OC`, the TGI with SN12C renal is 81.6 µM; in the experiment with M14 melanoma, 44.7 µM; in the experiment on HS 578T breast it was 94.4 µM; with HT29 colon, greater than 100 µM; in the experiment with A549 NSCLC it was 45.2 µM; in the experiment with DU-145 prostate, 93.4 µM. Moreover, the TGI with K-562 leukemia was 77.8 µM; in the experiment with SF-539 CNS, 38.8 µM; in the experiment with UO-31 renal, 73.7 µM; with NCI-H226 lung, 58.1 µM.

Take `CCOC(=O)/C=C(/OCC)[C@@H]1C(C(=O)c2ccc(Cl)cc2)[C@@H]1/C(=C\C(=O)OCC)OCC` (some centres undefined): the TGI in the experiment with SN12C renal, in the experiment with M14 melanoma, with HS 578T breast, with HT29 colon, in the experiment on A549 NSCLC and in the experiment on DU-145 prostate was greater than 100 µM in each case. For the same molecule, the TGI in the experiment with K-562 leukemia is greater than 22.3 µM; in the experiment on SF-539 CNS, greater than 100 µM; in the experiment with UO-31 renal it was greater than 91 µM; in the experiment on NCI-H226 lung it was greater than 100 µM.
